Measurements reported in US10556907B2 (AbbVie Inc., priority 2015, dated 2020).
Where two headings read alike, the source gives them in different places.

What was measured:
Assay in all cases: Method 1: intracellular Ca2+ release (FLIPR, Calcium 5) in recombinant CHO-K1 cells
Type in all cases: cell-based
human S1PR1 receptor = target: T1, human S1PR1 receptor (Homo sapiens, UniProt P21453); details: (1): determined with method 1; read-out: S1P1 EC50
T1 construct: host or cells: CHO-K1
Description: (§1) Agonistic activity was measured using two different methods, described below.
(§2) Method 1. Intracellular Ca^2+ Release
(§3) Agonist potency and intrinsic activity was assessed by measurement of intracellular Ca^2+ release. Recombinant CHO-K1 cells (Euroscreen, Brussels, Belgium) expressing human S1PR5, S1PR1, S1PR3 or S1PR4 receptors, aequorin, and GTP binding protein Gq/i5 were cultured using a medium containing nutrient mixture F-12 Ham (Sigma-Aldrich) with 10% FBS, and 100 μg/mL gentamicin and equilibrated at 5% CO2.
(§4) 15.000 cells in 20 μL medium were seeded into Biocoat poly-D-Lysine coated 384 well plates (Becton Dickinson #35-6663) and grown to 95% confluency after 24 h.
(§5) Culture medium was replaced by an assay buffer consisting of HBBS with Ca^2+ and Mg^2+ (Invitrogen #14025-050), 20 mmol/L Hepes (Sigma-Aldrich #H-3375), 2.5 mmol/L probenecid (Sigma-Aldrich #P-8761, and 0.1% BSA (Sigma-Aldrich #A-7030) pH 7.4. The Calcium 5 no-wash FLIPR assay kit (Molecular Devices #5000625) was performed as described in the kit instructions. Cells were incubated with Calcium 5 dye for 1 h at 37° C., 5% CO2 in the dark. After 45 min adaptation to RT assessment of agonist stimulation of intracellular Ca^2+ release was performed by addition of test compounds at concentrations obtained by serial dilution. Phospho-fingolimod was used as positive control. Antagonists were pre-incubated for 10 min with cells before addition of the agonist (phospho-fingolimod at EC80). Measurements were performed using a fluorometric imaging plate reader FLIPR® tetra (Molecular Devices). Agonist at the human S1P receptors were characterized by deducing EC50 (potency) values from a nonlinear fit to the measured fluorescence raw data after normalization to the reference agonist (phospho-fingolimod) curve.

human S1PR3 receptor = target: T2, human S1PR3 receptor (Homo sapiens, UniProt Q99500); details: (1): determined with method 1; read-out: S1P3 EC50
T2 construct: host or cells: CHO-K1
T2 sequence (Q99500 whole entry): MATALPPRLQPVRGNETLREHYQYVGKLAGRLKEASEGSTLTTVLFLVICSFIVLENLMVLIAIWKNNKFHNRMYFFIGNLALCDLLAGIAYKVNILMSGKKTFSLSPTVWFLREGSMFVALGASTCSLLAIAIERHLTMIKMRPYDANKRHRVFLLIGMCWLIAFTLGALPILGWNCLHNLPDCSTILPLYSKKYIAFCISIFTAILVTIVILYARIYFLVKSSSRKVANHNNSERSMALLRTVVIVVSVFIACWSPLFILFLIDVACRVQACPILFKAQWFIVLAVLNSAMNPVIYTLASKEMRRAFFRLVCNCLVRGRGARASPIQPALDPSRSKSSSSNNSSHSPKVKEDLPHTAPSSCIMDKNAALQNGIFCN
Description: as §1, §2, §3, §4, §5

human S1PR5 receptor = target: T3, human S1PR5 receptor (Homo sapiens, UniProt Q9H228)
T3 construct: host or cells: CHO-K1
T3 sequence (Q9H228 whole entry): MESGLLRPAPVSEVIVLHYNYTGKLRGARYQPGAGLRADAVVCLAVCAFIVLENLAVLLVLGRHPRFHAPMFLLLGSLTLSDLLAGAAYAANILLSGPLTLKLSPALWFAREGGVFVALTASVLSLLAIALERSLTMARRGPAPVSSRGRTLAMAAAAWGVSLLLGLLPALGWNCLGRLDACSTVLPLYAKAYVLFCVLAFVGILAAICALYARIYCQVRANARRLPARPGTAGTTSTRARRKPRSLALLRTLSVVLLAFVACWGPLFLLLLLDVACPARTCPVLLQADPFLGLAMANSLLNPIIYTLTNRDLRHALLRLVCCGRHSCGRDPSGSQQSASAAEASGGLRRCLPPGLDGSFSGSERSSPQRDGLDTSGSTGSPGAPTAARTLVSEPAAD
Description: as §1, §2, §3, §4, §5

[1] = agonist potency, determined with method 1 (symbols A-D), read-out: S1P5 EC50 range

T1 sequence (P21453 whole entry): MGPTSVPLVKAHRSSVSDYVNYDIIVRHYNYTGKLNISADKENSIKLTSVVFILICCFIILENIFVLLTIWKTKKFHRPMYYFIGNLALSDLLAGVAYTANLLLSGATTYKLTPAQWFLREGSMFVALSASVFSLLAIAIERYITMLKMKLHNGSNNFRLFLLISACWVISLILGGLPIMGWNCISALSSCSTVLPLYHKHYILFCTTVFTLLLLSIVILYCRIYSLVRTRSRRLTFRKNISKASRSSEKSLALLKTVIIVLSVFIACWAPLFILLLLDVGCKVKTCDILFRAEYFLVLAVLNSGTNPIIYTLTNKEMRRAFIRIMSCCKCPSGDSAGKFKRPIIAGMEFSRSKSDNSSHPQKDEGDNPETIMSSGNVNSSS

EC50 (human S1PR1 receptor) [µM]	EC50 (human S1PR3 receptor) [µM]	EC50 (human S1PR5 receptor; [1]) [µM]	EC50 (human S1PR5 receptor; (1): determined with method 1, read-out: S1P5 EC50 range (bound printed instead of class symbol)) [µM]	SMILES
> 1	> 1	< 0.01	–	CC(CN1CCc2nc(-c3ccc(OCc4ccc(F)c(F)c4)cc3)ncc2C1)C(=O)O (stereo not shown) [Compound 11, 3-(2-(4-((3,4-difluorobenzyl)oxy)phenyl)-7,8-dihydropyrido[4,3-d]pyrimidin-6(5H)-yl)-2-methylpropanoic acid]
> 1	> 1	0.01 to 0.1	–	CC(CC(=O)O)CN1CCc2nc(-c3ccc(OCc4ccccc4)cc3)ncc2C1 (stereo not shown) [Compound 21, 4-(2-(4-(benzyloxy)phenyl)-7,8-dihydropyrido[4,3-d]pyrimidin-6(5H)-yl)-3-methylbutanoic acid]
> 1	> 1	0.01 to 0.1	–	O=C(O)CCCN1CCc2nc(-c3ccc(OCc4ccccc4)cc3)ncc2C1 [Compound 37, 4-(2-(4-(benzyloxy)phenyl)-7,8-dihydro-dihydropyrido[4,3-d]pyrimidin-6(5H)-yl)butanoic acid]
> 1	> 1	< 0.01	–	CC(CC(=O)O)N1CCc2nc(-c3ccc(OCc4cccc(F)c4)cc3)ncc2C1 (stereo not shown) [Compound 41, 3-(2-(4-((3-fluorobenzyl)oxy)phenyl)-7,8-dihydropyrido[4,3-d]pyrimidin-6(5H)-yl)butanoic acid]
> 1	> 1	0.1 to 1	–	CC(CC(=O)O)N1CCc2nc(-c3ccc(OCc4cccc(Cl)c4)cc3)ncc2C1 (stereo not shown) [Compound 43, 3-(2-(4-((3-chlorobenzyl)oxy)phenyl)-7,8-dihydropyrido[4,3-d]pyrimidin-6(5H)-yl)butanoic acid]
> 1	> 1	0.01 to 0.1	–	CC(CC(=O)O)N1CCc2nc(-c3ccc(OCc4ccc(Cl)cc4)cc3)ncc2C1 (stereo not shown) [Compound 44, 3-(2-(4-((4-chlorobenzyl)oxy)phenyl)-7,8-dihydropyrido[4,3-d]pyrimidin-6(5H)-yl)butanoic acid]
> 1	> 1	1 to 10	–	CC(C)Oc1ccc(-c2ncc3c(n2)CCN(CCCC(=O)O)C3)cc1 [Compound 46, 4-(2-(4-isopropoxyphenyl)-7,8-dihydropyrido[4,3-d]pyrimidin-6(5H)-yl)butanoic acid]
> 1	> 1	1 to 10	–	CC(C)Oc1ccc(-c2ncc3c(n2)CCN(CCCC(=O)O)C3)cc1Cl [Compound 47, 4-(2-(3-chloro-4-isopropoxyphenyl)-7,8-dihydropyrido[4,3-d]pyrimidin-6(5H)-yl)butanoic acid]
> 1	> 1	1 to 10	–	O=C(O)CCCN1CCc2nc(C#Cc3cc(F)ccc3F)ncc2C1 [Compound 49, 4-(2-((2,5-difluorophenyl)ethynyl)-7,8-dihydropyrido[4,3-d]pyrimidin-6(5H)-yl)butanoic acid]
> 1	> 1	0.01 to 0.1	–	O=C(O)CCN1CCc2nc(-c3ccc(OCc4ccccc4)cc3)ncc2C1 [Compound 67, 3-(2-(4-(benzyloxy)phenyl)-7,8-dihydropyrido[4,3-d]pyrimidin-6(5H)-yl)propanoic acid]
> 1	> 1	< 0.01	–	O=C(O)CCN1CCc2nc(-c3ccc(OCc4ccc(F)c(F)c4)cc3)ncc2C1 [Compound 71, 3-(2-(4-((3,4-difluorobenzyl)oxy)phenyl)-7,8-dihydropyrido[4,3-d]pyrimidin-6(5H)-yl)propanoic acid]
> 1	> 1	1 to 10	–	CC(C)Oc1ccc(-c2ncc3c(n2)CCN(CCC(=O)O)C3)cc1 [Compound 75, 3-(2-(4-isopropoxyphenyl)-7,8-dihydropyrido[4,3-d]pyrimidin-6(5H)-yl)propanoic acid]
–	–	0.1 to 1	–	O=C(O)CC1(CN2CCc3nc(-c4ccc(OCc5ccc(Cl)cc5)cc4)ncc3C2)CC1 [Compound 286, 2-((4(2-(4-((4-chlorobenzyl)oxy)phenyl)-7,8-dihydropyrido[4,3-d]pyrimidin-6(5H)-yl)methyl)cyclopropyl)acetic acid]
–	> 1	–	> 1	CC(CC(=O)O)CN1Cc2cnc(-c3ccc(OCc4ccc(Cl)cc4)cc3)nc2CC12CCC2 (stereo not shown) [Compound 326, 4-(2′-(4-((4-chlorobenzyl)oxy)phenyl)-5′H-spiro[cyclobutane-1,7′-pyrido[4,3-d]pyrimidin]-6′(8′H)-yl)-3-methylbutanoic acid]

Second part, the compound before the results:

SMILES	EC50 (human S1PR1 receptor) [µM]	EC50 (human S1PR3 receptor) [µM]	EC50 (human S1PR5 receptor; [1]) [µM]	EC50 (human S1PR5 receptor; (1): determined with method 1, read-out: S1P5 EC50 range (bound printed instead of class symbol)) [µM]
CC(CC(=O)O)CN1CCc2nc(-c3ccc(OCc4ccc(Cl)cc4)cc3)ncc2C1 (single isomer, unassigned; (-)) [Compound 213, (−)-4-(2-(4-((4-chlorobenzyl)oxy)phenyl)-7,8-dihydropyrido[4,3-d]pyrimidin-6(5H)-yl)-3-methylbutanoic acid]	> 1	> 1	0.01 to 0.1	–
CC(CN1CCc2nc(-c3ccc(OCc4cccc(Cl)c4)cc3)ncc2C1)C(=O)O (stereo not shown) [Compound 10, 3-(2-(4-((3-chlorobenzyl)oxy)phenyl)-7,8-dihydropyrido[4,3-d]pyrimidin-6(5H)-yl)-2-methylpropanoic acid]	> 1	> 1	< 0.01	–
Cc1cccc(C)c1COc1ccc(-c2ncc3c(n2)CCN(CC(C)C(=O)O)C3)cc1 (stereo not shown) [Compound 15, 3-(2-(4-((2,6-dimethylbenzyl)oxy)phenyl)-7,8-dihydropyrido[4,3-d]pyrimidin-6(5H)-yl)-2-methylpropanoic acid]	< 1	> 1	< 0.01	–
CC(CN1CCc2nc(-c3ccc(OCc4cccc(F)c4F)cc3)ncc2C1)C(=O)O (stereo not shown) [Compound 16, 3-(2-(4-((2,3-difluorobenzyl)oxy)phenyl)-7,8-dihydropyrido[4,3-d]pyrimidin-6(5H)-yl)-2-methylpropanoic acid]	< 1	> 1	< 0.01	–
CC(CC(=O)O)N1CCc2nc(-c3ccc(OCc4ccccc4)cc3)ncc2C1 (stereo not shown) [Compound 36, 3-(2-(4-(benzyloxy)phenyl)-7,8-dihydropyrido[4,3-d]pyrimidin-6(5H)-yl)butanoic acid]	> 1	> 1	0.1 to 1	–
O=C(O)CCCN1CCc2nc(-c3ccc(OCc4cccc(Cl)c4)cc3)ncc2C1 [Compound 38, 4-(2-(4-((3-chlorobenzyl)oxy)phenyl)-7,8-dihydropyrido[4,3-d]pyrimidin-6(5H)-yl)butanoic acid]	> 1	> 1	< 0.01	–
CC(CC(=O)O)N1CCc2nc(-c3ccc(OCc4ccc(F)c(F)c4)cc3)ncc2C1 (stereo not shown) [Compound 42, 3-(2-(4-((3,4-difluorobenzyl)oxy)phenyl)-7,8-dihydropyrido[4,3-d]pyrimidin-6(5H)-yl)butanoic acid]	> 1	> 1	< 0.01	–
O=C(O)CCCN1CCc2nc(C#Cc3ccccc3)ncc2C1 [Compound 48, 4-(2-(phenylethynyl)-7,8-dihydropyrido[4,3-d]pyrimidin-6(5H)-yl)butanoic acid]	> 1	> 1	1 to 10	–
O=C(O)CCN1CCc2nc(-c3ccc(OCc4cccc(F)c4)cc3)ncc2C1 [Compound 68, 3-(2-(4-((3-fluorobenzyl)oxy)phenyl)-7,8-dihydropyrido[4,3-d]pyrimidin-6(5H)-yl)propanoic acid]	> 1	> 1	0.01 to 0.1	–
O=C(O)CCN1CCc2nc(-c3ccc(OCc4cccc(Cl)c4)cc3)ncc2C1 [Compound 72, 3-(2-(4-((3-chlorobenzyl)oxy)phenyl)-7,8-dihydropyrido[4,3-d]pyrimidin-6(5H)-yl)propanoic acid]	> 1	> 1	< 0.01	–
O=C(O)CCN1CCc2nc(-c3ccc(OCc4ccc(Cl)c(Cl)c4)cc3)ncc2C1 [Compound 73, 3-(2-(4-((3,4-dichlorobenzyl)oxy)phenyl)-7,8-dihydropyrido[4,3-d]pyrimidin-6(5H)-yl)propanoic acid]	> 1	> 1	< 0.01	–
O=C(O)CCN1CCc2nc(-c3ccc(OCc4cccc(C(F)F)c4)cc3)ncc2C1 [Compound 76, 3-(2-(4-((3-difluoromethylbenzyl)oxy)phenyl)-7,8-dihydropyrido[4,3-d]pyrimidin-6(5H)-yl)propanoic acid]	> 1	> 1	< 0.01	–
O=C(O)CC1(CN2CCc3nc(-c4ccc(OCc5cccc(Cl)c5)cc4)ncc3C2)CC1 [Compound 327, 2-((4(2-(4-((3-chlorobenzyl)oxy)phenyl)-7,8-dihydropyrido[4,3-d]pyrimidin-6(5H)-yl)methyl)cyclopropyl)acetic acid]	–	–	1 to 10	–
